Data on six molecules can be found in article PMC10574767, “Extractives from Artemisia afra with Anti-Bacterial and Anti-Fungal Properties” (Plants, 2023).

Test [1] relates to intra-erythrocytic and gametocyte asexual P. falciparum parasites. More on the design: method as in PMID 30849984. The conditions noted are these: intra-erythrocytic and gametocyte stages; cited from earlier work.
In test [2] the test system is Candida albicans ATCC 10231. The test can be described thus: Serial dilution microplate MIC (fungi). It counts as cell-based. Conditions: Candida albicans, read-out: Minimum inhibitory concentration (MIC) C. albicans. Here is the method:
(§1) The MIC value of the plant extracts and isolated compounds against one fungal and five bacterial strains (Salmonella Typhimurium ATCC 39183, Escherichia coli ATCC 25922, Pseudomonas aeruginosa ATCC 27853, Staphylococcus aureus ATCC 29213, Enterococcus faecalis ATCC 29212, and fungi culture, Candida albicans ATCC 10231) was assessed in triplicate using the serial dilution microplate method; acetone and DMSO were used as solvents. Bacterial cultures were grown in Mueller Hinton broth (Sigma Aldrich, St. Louis, MO, USA) overnight and adjusted to McFarland standard 1 (1 × 10^8 CFU/mL). Then, 100 µL of samples were transferred into the first well of a sterile 96-well microtiter plate, which contained 100 µL of water and a 1:1 serial dilution with sterilized distilled water was carried out. In each well, 100 µL of appropriately adjusted fungal or bacterial cultures were added, and the bacteria were subjected to final concentrations of 250–3.9 μg/mL for pure compounds and 2.5–0.02 mg/mL for crude extracts. Amphotericin-B and Gentamicin (Virbac, Carros, France) served as positive controls for fungi and bacteria, respectively. For sterility, water served as control, while acetone served as a negative control. The microplates were then incubated for 24 h at 37 °C. Following incubation, 40 µL of 0.2 mg/mL p-iodonitrotetrazolium violet (INT, Sigma Aldrich) dissolved in water (hot) was added to the wells before being incubated at 37 °C for another 2 h. In the case of fungi, the INT was added before incubation. The MIC was measured visually as the lowest concentration of the compounds/extracts that inhibited proliferation.

Test [3] concerns Enterococcus faecalis ATCC 29212. Briefly: Serial dilution microplate MIC. It counts as cell-based. Conditions: Enterococcus faecalis, read-out: Minimum inhibitory concentration (MIC) E. faecalis. Here is the method: as §1
For test [4], the system named is Escherichia coli ATCC 25922. The test can be described thus: Serial dilution microplate MIC. It counts as cell-based. Conditions: Escherichia coli, read-out: Minimum inhibitory concentration (MIC) E. coli. As for the experimental part: as §1
Test [5] concerns Pseudomonas aeruginosa ATCC 27853. The test can be described thus: Serial dilution microplate MIC. Conditions: Pseudomonas aeruginosa, read-out: Minimum inhibitory concentration (MIC) P. aeruginosa. It counts as cell-based. As for the experimental part:
as §1

Test [6] deals with Salmonella Typhimurium ATCC 39183. Briefly: Serial dilution microplate MIC. It is filed as cell-based. The conditions noted are these: Salmonella enterica, read-out: Minimum inhibitory concentration (MIC) S. Typhimurium. Here is the method: as §1
The test system of test [7] is Staphylococcus aureus ATCC 29213. Briefly: Serial dilution microplate MIC. It counts as cell-based. Conditions: Staphylococcus aureus, read-out: Minimum inhibitory concentration (MIC) S. aureus. As for the experimental part:
as §1

The subject of a further test is COX-1. More on the design: method as in doi:10.3329/bjp.v8i2.14167. The conditions noted are these: cited from earlier work.
For another test, the system named is COX-2. Set-up: method as in doi:10.3329/bjp.v8i2.14167. Conditions: cited from earlier work.
On the set-up of test [8]: method as in PMID 22693528. The conditions noted are these: cited from earlier work.

One may read the IC50 as the concentration at which inhibition is half-maximal.

Structures are written as SMILES. Values after ≈ are worked out from the molar mass of the structure shown. Read-outs that look alike come from different tables or passages of the source.

With `C=C1C(=O)O[C@H]2C1[C@@H](OC(C)=O)CC(=C)[C@]1(O)C=C[C@@](C)(O)[C@H]21` (stereo partly drawn) [1α, 4α-dihydroxybishopsolicepolide], the half-inhibitory concentration (IC50) in test [1] was roughly 10 µM.

Regarding `C[C@@H]1[C@H](O)[C@@H](C)/C=C/C=C/C=C/C=C/C=C/C=C/C=C/[C@H](O[C@@H]2O[C@H](C)[C@@H](O)[C@H](N)[C@@H]2O)C[C@@H]2O[C@](O)(C[C@@H](O)C[C@@H](O)[C@H](O)CC[C@@H](O)C[C@@H](O)CC(=O)O[C@H]1C)C[C@H](O)[C@H]2C(=O)O` [Amphotericin-B, reference compound], the MIC came to 20 µg/mL (≈ 21.6 µM) in test [2] (ATCC10231, crude extracts, Table 1) and 3.9 µg/mL (≈ 4.22 µM) in test [2] (ATCC10231, isolated compounds, Table 2).

As to `C=C1C(=O)O[C@H]2[C@H]1[C@@H](OC(C)=O)C[C@@](C)(O)[C@@]13O[C@@H]1[C@@H]1O[C@]1(C)[C@H]23` [Yomogiartemin], the IC50 in test [1] is roughly 10 µM.

As for `CNC(C)C1CCC(N)C(OC2C(N)CC(N)C(OC3OCC(C)(O)C(NC)C3O)C2O)O1` (centres unmarked) [Gentamicin, reference compound], the MIC in test [3] (ATCC29212, crude extracts, Table 1) is 20 µg/mL (≈ 41.9 µM); in test [3] (ATCC29212, isolated compounds, Table 2) it was 3.9 µg/mL (≈ 8.17 µM); in test [4] (ATCC25922, crude extracts, Table 1), 20 µg/mL (≈ 41.9 µM); in [4] (ATCC25922, isolated compounds, Table 2), 3.9 µg/mL (≈ 8.17 µM); in test [5] (ATCC27853, crude extracts, Table 1), 20 µg/mL (≈ 41.9 µM); in test [5] (ATCC27853, isolated compounds, Table 2) it was 3.9 µg/mL (≈ 8.17 µM). Also, the MIC was determined as 20 µg/mL (≈ 41.9 µM) in test [6] (crude extracts, Table 1); 3.9 µg/mL (≈ 8.17 µM) in [6] (isolated compounds, Table 2); 20 µg/mL (≈ 41.9 µM) in test [7] (ATCC29213, crude extracts, Table 1); 3.9 µg/mL (≈ 8.17 µM) in [7] (ATCC29213, isolated compounds, Table 2).

As for `CC(=O)O[C@H]1CC[C@]2(C)[C@H]3CC[C@]4(C)C(=CC[C@@]5(C)CCC(C)(C)C[C@H]54)[C@]3(C)CC[C@H]2C1(C)C` [3β-Taraxerol acetate, 3β-taraxerol acetate], the IC50 with COX-1 was 116 µM; with COX-2, 94.7 µM.

With `O=C1O[C@H]([C@@H](O)CO)C(O)=C1O` [vitamin C, reference compound], the “IC50 DPPH radical” value in test [8] is given as 1.22 µg/mL (≈ 6.93 µM).
